Source: ChEMBL document CHEMBL5303304, “EUbOPEN Chemogenomics Library - IncuCyte” (2023)

Tests used:
Assay type in all cases: toxicity, cell-based
[1] = test system: HEK-293T; experiment: Incucyte cell viability with HEK293T; settings: human, 10 µM, compound concentration 10 uM
[2] = test system: Fibroblast; experiment: Incucyte cell viability with human fibroblast; settings: 10 µM, compound concentration 10 uM
[3] = test system: U2OS; experiment: Incucyte cell viability with U2OS; settings: human, 10 µM, compound concentration 10 uM
Further: unitless GR value; below 1 slowed growth and below 0 cell loss.

Row | Compound | Growth Rate ([1]; 0 h, replicate number 1) | Growth Rate ([1]; 0 h, replicate number 2) | Growth Rate ([1]; 12 h, replicate number 2) | Growth Rate ([1]; 18 h, replicate number 1) | Growth Rate ([1]; 18 h, replicate number 2) | Growth Rate ([1]; 24 h, replicate number 1) | Growth Rate ([1]; 24 h, replicate number 2) | Growth Rate ([2]; 0 h, replicate number 1) | Growth Rate ([2]; 12 h, replicate number 2) | Growth Rate ([2]; 18 h, replicate number 1) | Growth Rate ([2]; 18 h, replicate number 2) | Growth Rate ([2]; 24 h, replicate number 1) | Growth Rate ([2]; 24 h, replicate number 2) | Growth Rate ([3]; 12 h, replicate number 1) | Growth Rate ([3]; 18 h, replicate number 1) | Growth Rate ([3]; 18 h, replicate number 2) | Growth Rate ([3]; 24 h, replicate number 2) | Growth Rate ([2]; 0 h, replicate number 2) | Growth Rate ([3]; 0 h, replicate number 1) | Growth Rate ([1]; 6 h, replicate number 2) | also measured
1 | CNc1nc(-c2ccc3c(N)n[nH]c3c2)cc(N2C[C@@H](C(=O)NC3CCCCC3)CC[C@H]2C)n1 | -1 | -0.02 | 0.66 | 0.8 | 0.55 | 0.72 | 0.55 | -0.99 | 0.96 | 0.38 | 0.7 | 0.22 | 0.64 | 0.7 | 0.49 | 0.82 | 0.72 |  |  |  | Growth Rate ([1]; 12 h, replicate number 1): 0.89; Growth Rate ([2]; 12 h, replicate number 1): 0.62; Growth Rate ([3]; 12 h, replicate number 2): 0.8; Growth Rate ([3]; 24 h, replicate number 1): 0.51
2 | CCn1c(-c2nonc2N)nc2cncc(C(=O)N3CC[C@H](N)C3)c21.Cl | -0.71 | -0.15 |  |  |  |  |  | -1 |  |  |  |  |  |  |  | 0.88 | 0.79 | -0.88 | -1 |  | 
3 | CCc1nc(-c2cccc(C)c2)c(-c2ccncc2)s1 | -0.67 |  |  | 0.99 |  |  |  | -0.98 |  |  |  |  |  |  |  |  |  | 0.64 |  | 0.9 | Growth Rate ([2]; 6 h, replicate number 2): 1; Growth Rate ([2]; 12 h, replicate number 1): 0.95; Growth Rate ([3]; 0 h, replicate number 2): 0.65; Growth Rate ([3]; 6 h, replicate number 2): 0.83
4 | CCc1cnn2c(NCc3ccc[n+]([O-])c3)cc(N3CCCCC3CCO)nc12 (stereo not given) | -0.01 |  | -0.66 | -0.2 | -0.53 | -0.14 | -0.41 | -0.96 | -0.13 | 0.16 | -0.04 | 0.25 | -0.14 | -0.08 | -0.15 | -0.08 |  | 0.67 | -0.62 | -0.72 | Growth Rate ([1]; 6 h, replicate number 1): -0.39; Growth Rate ([1]; 12 h, replicate number 1): -0.26; Growth Rate ([2]; 6 h, replicate number 1): 0.11; Growth Rate ([2]; 6 h, replicate number 2): 0; Growth Rate ([2]; 12 h, replicate number 1): 0.25; Growth Rate ([3]; 0 h, replicate number 2): 0.91; Growth Rate ([3]; 6 h, replicate number 1): 0.19; Growth Rate ([3]; 6 h, replicate number 2): 0.07; Growth Rate ([3]; 12 h, replicate number 2): 0.11; Growth Rate ([3]; 24 h, replicate number 1): -0.23
5 | Cc1cc(NC(=O)c2cccc(NC(=O)/C=C/CN(C)C)c2)ccc1Nc1nccc(-c2cccnc2)n1 | 0 | 0.65 | -0.35 | -0.23 | -0.32 | -0.19 | -0.26 | -1 | -0.15 | -0.24 | -0.3 | -0.22 | -0.29 | 0.69 | 0.46 | 0.93 | 0.51 | 0.14 | -1 | -0.41 | Growth Rate ([1]; 6 h, replicate number 1): -0.35; Growth Rate ([1]; 12 h, replicate number 1): -0.26; Growth Rate ([2]; 6 h, replicate number 1): 0.07; Growth Rate ([2]; 6 h, replicate number 2): 0.32; Growth Rate ([2]; 12 h, replicate number 1): -0.2; Growth Rate ([3]; 24 h, replicate number 1): 0.29
6 | OCC1OC(n2cnc3cc(Cl)c(Cl)cc32)C(O)C1O (stereo not given) | 0.64 | 0.84 | 0.83 | 0.48 | 0.74 | 0.55 | 0.82 | -0.9 | 0.42 |  | 0.86 | 0.84 | 0.78 | 0.53 | 0.33 | 0.94 |  | -0.97 |  | 0.29 | Growth Rate ([1]; 6 h, replicate number 1): 0.33; Growth Rate ([1]; 12 h, replicate number 1): 0.43; Growth Rate ([2]; 6 h, replicate number 2): 0.4; Growth Rate ([3]; 0 h, replicate number 2): 0.83; Growth Rate ([3]; 6 h, replicate number 2): 0.95
7 | NS(=O)(=O)c1ccc(Nc2nc(OCC3CCCCC3)c3nc[nH]c3n2)cc1 | 0.76 |  | 0.98 |  | 0.9 |  | 0.82 | -1 | 0.55 |  | 0.56 |  |  | 0.53 | 0.8 | 0.94 | 0.93 |  | -0.84 |  | Growth Rate ([3]; 6 h, replicate number 1): -0.3; Growth Rate ([3]; 24 h, replicate number 1): 0.87
8 | CNS(=O)(=O)c1ccc(N(C)C)c(Nc2ncnc3cc(OC)c(OC)cc23)c1 | -0.66 | 0.17 | 0.6 | 0.88 | 0.42 | 0.79 | 0.47 | -1 | 0.32 | 0.69 | 0.4 | 0.51 | 0.29 | 0.84 | 0.85 | 0.39 | 0.71 |  | -1 | 0.92 | Growth Rate ([3]; 6 h, replicate number 2): 0.65; Growth Rate ([3]; 12 h, replicate number 2): 0.6; Growth Rate ([3]; 24 h, replicate number 1): 0.8
9 | Cn1cc(-c2ccc(N(C(=O)NCc3ccccc3)[C@H]3CC[C@H](Nc4ccc(C#N)cn4)CC3)cc2)ccc1=O | -0.73 | 0.96 | -0.56 | -0.21 | -0.48 | -0.14 | -0.39 | 0.84 | -0.01 | 0.17 | -0.04 | 0.16 | -0.08 | 0.28 | 0.12 | 0.06 | -0.05 | -0.77 |  | -0.56 | Growth Rate ([1]; 6 h, replicate number 1): -0.2; Growth Rate ([1]; 12 h, replicate number 1): -0.28; Growth Rate ([2]; 6 h, replicate number 1): 0.65; Growth Rate ([2]; 6 h, replicate number 2): 0.48; Growth Rate ([2]; 12 h, replicate number 1): 0.45; Growth Rate ([3]; 6 h, replicate number 1): 0.45; Growth Rate ([3]; 6 h, replicate number 2): 0.58; Growth Rate ([3]; 24 h, replicate number 1): -0.14
10 | Fc1ccc(-c2nc(-c3c(F)cccc3F)[nH]c2-c2ccncc2)cc1 | -0.47 | 0.65 | 0.5 |  | 0.62 |  | 0.68 | -0.99 |  |  |  |  |  |  |  | 0.97 | 0.76 | 0.29 | -1 | 0.27 | 
11 | CNC(=O)c1c(F)cccc1Nc1nc(Nc2cc3c(cc2OC)CCN3C(=O)CN(C)C)nc2[nH]ccc12 | -1 | 0.35 | 0.75 |  | -0.03 |  | -0.14 | -0.92 | -0.65 | -0.23 | -0.62 | -0.23 | -0.6 | 0.02 | -0.42 | -0.11 | -0.14 |  | -0.99 |  | Growth Rate ([2]; 6 h, replicate number 1): 0.23; Growth Rate ([2]; 6 h, replicate number 2): -0.71; Growth Rate ([2]; 12 h, replicate number 1): 0.04; Growth Rate ([3]; 0 h, replicate number 2): -1; Growth Rate ([3]; 12 h, replicate number 2): 0.29; Growth Rate ([3]; 24 h, replicate number 1): -0.45
12 | CN1Cc2nccc(-c3cn(C)nc3-c3ccc(F)cc3)c2C1=O.Cl | -0.38 | 0.69 |  |  |  |  |  |  |  |  |  |  |  |  | 0.99 |  |  | 0.28 | 0.53 |  | Growth Rate ([3]; 0 h, replicate number 2): 0.96
13 | CC(=O)c1c(C)c2cnc(Nc3ccn(C)n3)nc2n(C2CCCC2)c1=O | 0.51 |  | 0.81 | 0.9 | 0.79 | 0.79 | 0.83 |  |  | 0.8 |  |  |  | 0.06 |  | 0.92 |  |  |  | 0.76 | Growth Rate ([1]; 6 h, replicate number 1): 0.81; Growth Rate ([1]; 12 h, replicate number 1): 0.97; Growth Rate ([2]; 6 h, replicate number 2): 0.93; Growth Rate ([3]; 6 h, replicate number 1): 0.67; Growth Rate ([3]; 6 h, replicate number 2): 0.96; Growth Rate ([3]; 12 h, replicate number 2): 0.99
14 | O=C1Nc2ccc(I)cc2/C1=C/c1cc(Br)c(O)c(Br)c1 | -0.98 | 0.38 | 0.98 |  | 0.88 |  | 0.86 | -1 |  |  |  |  |  |  |  |  |  |  | -0.98 | 0.9 | Growth Rate ([3]; 0 h, replicate number 2): 0.76
